From patent publication US7407968B2, “Compounds” (AstraZeneca AB, priority 2003, dated 2008)
Read-outs that look alike come from different tables or passages of the source.

Assays:
[1] = target: Human CB1 receptor from Receptor Biology (hCB1) (Homo sapiens, UniProt P21554); experiment: hCB1 receptor binding (3H-CP55,940 displacement)
[2] = target: T1, human CB2 receptor from BioSignal (hCB2) (Homo sapiens, UniProt P34972); experiment: hCB2 receptor binding (3H-CP55,940 displacement)
T1 construct: purchased BioSignal
T1 sequence (P34972 whole entry): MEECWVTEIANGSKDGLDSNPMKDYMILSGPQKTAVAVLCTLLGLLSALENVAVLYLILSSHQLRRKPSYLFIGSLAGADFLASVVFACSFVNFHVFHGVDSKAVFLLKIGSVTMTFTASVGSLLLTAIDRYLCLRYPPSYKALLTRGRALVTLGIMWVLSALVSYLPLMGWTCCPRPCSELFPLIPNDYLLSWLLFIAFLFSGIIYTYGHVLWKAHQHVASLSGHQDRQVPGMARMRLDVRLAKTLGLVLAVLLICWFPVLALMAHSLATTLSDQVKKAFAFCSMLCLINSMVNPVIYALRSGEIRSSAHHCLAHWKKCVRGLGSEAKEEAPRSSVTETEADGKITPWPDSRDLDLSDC

[3] = hCB1 membranes, 3H-CP55,940 radioligand, Ki=IC50/(1+[rad]/Kd), read-out: hCB1 Ki

Human CB1 receptor from Receptor Biology (hCB1), sequence (P21554 whole entry): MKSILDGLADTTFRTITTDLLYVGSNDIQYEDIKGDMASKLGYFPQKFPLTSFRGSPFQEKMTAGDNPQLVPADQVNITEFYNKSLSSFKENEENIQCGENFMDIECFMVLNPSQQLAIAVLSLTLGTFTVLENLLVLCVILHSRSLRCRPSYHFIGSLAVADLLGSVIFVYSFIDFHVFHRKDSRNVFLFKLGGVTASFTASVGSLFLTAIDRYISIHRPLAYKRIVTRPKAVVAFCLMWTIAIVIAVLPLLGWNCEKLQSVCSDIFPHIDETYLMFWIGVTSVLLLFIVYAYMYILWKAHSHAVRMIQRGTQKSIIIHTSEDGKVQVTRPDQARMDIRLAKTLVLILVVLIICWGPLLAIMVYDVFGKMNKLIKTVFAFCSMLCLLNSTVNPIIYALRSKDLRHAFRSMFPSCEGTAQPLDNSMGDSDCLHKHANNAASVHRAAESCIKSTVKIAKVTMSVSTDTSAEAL

SMILES | Ki [1, 3] [nM] | Ki ([2]; hCB2 Ki (nM)) [nM] | Ki ([1]; hCB1 Ki (nM)) [nM] | Ki ([2]; read-out: hCB2 Ki) [nM] | Ki ([2]; hCB2 membranes, 3H-CP55,940 radioligand, Ki=IC50/(1+[rad]/Kd), read-out: hCB2 Ki) [nM]
CCOc1ccc(Cc2nc3cc(C(=O)N(CC(F)(F)F)CC(F)(F)F)ccc3n2CC2CCCCO2)cc1 (centres unmarked) [Compound 16] | 1410 | 3.3 | – | – | –
CCOc1ccc(Cc2nc3cc(C(=O)N(CC(F)(F)F)CC(F)(F)F)ccc3n2CC2CCC2)cc1 [Compound 25] | – | 2 | 1560 | – | –
CCOc1ccc(Cc2nc3cc(C(=O)N(CC(F)(F)F)CC(F)(F)F)ccc3n2Cc2ccncc2)cc1 [Compound 8] | 5350 | 16.7 | – | – | –
CCOc1ccc(Cc2nc3cc(C(=O)N(CC(F)(F)F)CC(F)(F)F)ccc3n2CC2CCC2)nc1 [Compound 26] | – | 6.6 | 5530 | – | –
CCOc1ccc(Cc2nc3cc(C(=O)N(CC(F)(F)F)CC(F)(F)F)ccc3n2CCC(C)C)nc1 [Compound 21] | – | 15.4 | 5430 | – | –
CCOc1ccc(Cc2nc3cc(C(=O)N(CC(F)(F)F)CC(F)(F)F)ccc3n2CC2CCOCC2)cc1 [Compound 13] | – | 5.4 | 565 | – | –
CCOc1ccc(Cc2nc3cc(C(=O)N(CC(F)(F)F)CC(F)(F)F)ccc3n2CC2CCOCC2)nc1 [Compound 20] | – | 11.2 | 2730 | – | –
CCOc1ccc(Cc2nc3cc(C(=O)N(CC(F)(F)F)CC(F)(F)F)ccc3n2CC2CC2)cc1 [Compound 2] | – | – | 5080 | 5.6 | –
CCOc1ccc(Cc2nc3cc(C(=O)N(CC(F)(F)F)CC(F)(F)F)ccc3n2C[C@@H]2CCCO2)cc1 [Compound 15] | – | 9.6 | 5750 | – | –
CCOc1ccc(Cc2nc3cc(C(=O)N(CC(F)(F)F)CC(F)(F)F)ccc3n2Cc2ccco2)cc1 [Compound 7] | 5530 | – | – | – | –
CCOc1ccc(Cc2nc3cc(C(=O)N(CC(F)(F)F)CC(F)(F)F)ccc3n2CC2CCCCC2)nc1 [Compound 30] | – | 3.1 | 455 | – | –
CCOc1ccc(Cc2nc3cc(C(=O)N(CC(F)(F)F)CC(F)(F)F)ccc3n2C[C@H]2CCCO2)cc1 [Compound 14] | – | 14.8 | 5750 | – | –
CC(C)Oc1ccc(Cc2nc3cc(C(=O)N(CC(F)(F)F)CC(F)(F)F)ccc3n2CC2CCCCC2)nc1 [Compound 32] | 142 | 2.7 | – | – | –
CCOc1ccc(Cc2nc3cc(C(=O)N(CC(F)(F)F)CC(F)(F)F)ccc3n2CCC(C)C)cc1 [Compound 1] | 2800 | 3.1 | – | – | –
CCOc1ccc(Cc2nc3cc(C(=O)N(CC(F)(F)F)CC(F)(F)F)ccc3n2Cc2ccco2)cc1 [Compound 4] | 4690 | – | – | – | –
CCOc1ccc(Cc2nc3cc(C(=O)N(CC(F)(F)F)CC(F)(F)F)ccc3n2CC2CCCCC2)cc1 [Compound 3] | – | 0.8 | 84.8 | – | –
CCOc1ccc(Cc2nc3cc(C(=O)N(CC(F)(F)F)CC(F)(F)F)ccc3n2CC2CCCC2)nc1 [Compound 27] | – | 3.2 | 1360 | – | –
CCOc1ccc(Cc2nc3cc(C(=O)N(CC(F)(F)F)CC(F)(F)F)ccc3n2Cc2ccoc2)nc1 [Compound 29] | 5810 | 68.7 | – | – | –
CCOc1ccc(C(C)c2nc3cc(C(=O)N(CC(F)(F)F)CC(F)(F)F)ccc3n2Cc2ccncc2)cc1 (centres unmarked) [Compound 9] | 5570 | – | – | – | 165
CCOc1ccc(Cc2nc3cc(C(=O)N(CC(F)(F)F)CC(F)(F)F)ccc3n2Cc2ccsc2)nc1 [Compound 36] | 5750 | 14 | – | – | –
